Structures can show the parent of a compound that is named as a salt. Where two headings read alike, the source gives them in different places.
Molecular target: T1, Human TREM2 (Homo sapiens, UniProt Q9NZC2)
T1 construct: expressed in transfected cells
Test: Human TREM2 activity: cellular phosphorylation of Syk (AlphaLISA SureFire Ultra p-SYK) in HEK293/DAP12+TREM2 stable cell line
Type: cell-based
Conditions: for Emax: maximal response relative to reference agonist example 1B (remaining examples)
In short: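 HEK293 cells stably co-expressing human TREM2 and DAP12 were seeded at 10,000 cells/well and used 20–24 h later. Compounds were tested at 8 concentrations (top 100 μM, 1:6 steps, 0.5% DMSO) for 30 min at 37 °C. Syk phosphorylation at Tyr525/526 was read in lysates by AlphaLISA SureFire Ultra.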

[1] = phospho-Syk AlphaLISA signal, HEK293/DAP12+TREM2 cells, concentration giving 50% of maximal response, read-out: EC50

T1 sequence (Q9NZC2 19-230): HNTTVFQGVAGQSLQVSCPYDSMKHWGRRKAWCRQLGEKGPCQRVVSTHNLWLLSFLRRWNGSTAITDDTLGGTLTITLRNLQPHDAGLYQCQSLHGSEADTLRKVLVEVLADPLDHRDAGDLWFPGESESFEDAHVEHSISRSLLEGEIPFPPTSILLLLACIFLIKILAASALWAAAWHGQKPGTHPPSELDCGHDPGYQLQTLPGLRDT
T1 sequence (O43914 22-113 partner): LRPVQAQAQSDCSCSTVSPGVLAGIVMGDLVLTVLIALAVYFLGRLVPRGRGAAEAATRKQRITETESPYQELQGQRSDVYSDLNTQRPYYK

Emax (HEK293, read-out: Emax) [%]	EC50 [1] [nM]	SMILES	Emax	EC50 [nM]
75 to 110	100 to 1000	Cc1nc2c(-c3ccc(C(F)(F)F)nc3)nc(N3CCOC(c4cnn(C)c4)C3)nc2c(=O)n1C (stereo not drawn) [Example 4, 2,3-dimethyl-6-(2-(1-methyl-1H-pyrazol-4-yl)morpholino)-8-(6-(trifluoromethyl)pyridin-3-yl)pyrimido[5,4-d]pyrimidin-4(3H)-one]	–	–
< 75	10 to 100	Cc1nc2c(-c3ccc(F)cc3F)nc(N3CCOC(c4cnn(C)c4)C3)nc2c(=O)n1C (stereo not drawn) [Example 5, 8-(2,4-difluorophenyl)-2,3-dimethyl-6-(2-(1-methyl-1H-pyrazol-4-yl)morpholino)pyrimido[5,4-d]pyrimidin-4(3H)-one]	–	–
75 to 110	> 1000	Cc1nc2c(-c3ccc(F)c(F)c3F)nc(N3CCOC(c4cnn(C)c4)C3)nc2c(=O)n1C (stereo not drawn) [Example 6, 2,3-dimethyl-6-(2-(1-methyl-1H-pyrazol-4-yl)morpholino)-8-(2,3,4-trifluorophenyl)pyrimido[5,4-d]pyrimidin-4(3H)-one]	–	–
< 75	100 to 1000	Cc1nc2c(-c3cc(F)c(F)cc3F)nc(N3CCOC(c4cnn(C)c4)C3)nc2c(=O)n1C (stereo not drawn) [Example 7, 2,3-dimethyl-6-(2-(1-methyl-1H-pyrazol-4-yl)morpholino)-8-(2,4,5-trifluorophenyl)pyrimido[5,4-d]pyrimidin-4(3H)-one]	–	–
< 75	100 to 1000	Cc1nc2c(-c3cc(F)c(F)c(F)c3)nc(N3CCOC(c4cnn(C)c4)C3)nc2c(=O)n1C (stereo not drawn) [Example 8, 2,3-dimethyl-6-(2-(1-methyl-1H-pyrazol-4-yl)morpholino)-8-(3,4,5-trifluorophenyl)pyrimido[5,4-d]pyrimidin-4(3H)-one]	–	–
< 75	100 to 1000	Cc1nc2c(-c3ccc(F)c(F)c3)nc(N3CCOC(c4cnn(C)c4)C3)nc2c(=O)n1C (stereo not drawn) [Example 9, 8-(3,4-difluorophenyl)-2,3-dimethyl-6-(2-(1-methyl-1H-pyrazol-4-yl)morpholino)pyrimido[5,4-d]pyrimidin-4(3H)-one]	–	–
75 to 110	100 to 1000	Cc1nc2c(-c3ccc(C(F)(F)F)cc3F)nc(N3CCOC(c4cnn(C)c4)C3)nc2c(=O)n1C (stereo not drawn) [Example 10, 8-(2-fluoro-4-(trifluoromethyl)phenyl)-2,3-dimethyl-6-(2-(1-methyl-1H-pyrazol-4-yl)morpholino)pyrimido[5,4-d]pyrimidin-4(3H)-one]	–	–
75 to 110	100 to 1000	Cc1nc2c(C3CCC(F)(F)CC3)nc(N3CCOC(c4cnn(C)c4)C3)nc2c(=O)n1C (stereo not drawn) [Example 11, 8-(4,4-difluorocyclohexyl)-2,3-dimethyl-6-(2-(1-methyl-1H-pyrazol-4-yl)morpholino)pyrimido[5,4-d]pyrimidin-4 (3H)-one]	–	–
75 to 110	> 1000	Cc1nc2c(nc(N3CCOC(c4cnn(C)c4)C3)nc2[C@H]2CC[C@@H](C)CC2)c(=O)n1C (stereo partly drawn) [Example 12a, 2,3-dimethyl-6-(2-(1-methyl-1H-pyrazol-4-yl)morpholino)-8-((1s,4s)-4-methylcyclohexyl)pyrimido[5,4-d]pyrimidin-4 (3H)-one]	–	–
–	100 to 1000	Cc1nc2c(C3CCC(C)CC3)nc(N3CCOC(c4cnn(C)c4)C3)nc2c(=O)n1C (stereo not drawn) [Example 12b, 2,3-dimethyl-6-(2-(1-methyl-1H-pyrazol-4-yl)morpholino)-8-((1r,4r)-4-methylcyclohexyl)pyrimido[5,4-d]pyrimidin-4 (3H)-one]	++ (75-110%)	–
75 to 110	1 to 10	Cc1nc2c(-c3ccc(Cl)cc3F)nc(N3CCC(F)(F)C(c4cnn(C)c4)C3)nc2c(=O)n1C (stereo not drawn) [Example 13, 8-(4-chloro-2-fluorophenyl)-6-(4,4-difluoro-3-(1-methyl-1H-pyrazol-4-yl)piperidin-1-yl)-2,3-dimethylpyrimido[5,4-d]pyrimidin-4 (3H)-one]	–	–
< 75	> 1000	Cc1nc2c(-c3ccc(Cl)cc3F)nc(N3CC(COc4cnn(C)c4)C3)nc2c(=O)n1C [Example 15, 8-(4-chloro-2-fluorophenyl)-2,3-dimethyl-6-(3-(((1-methyl-1H-pyrazol-4-yl)oxy)methyl)azetidin-1-yl)pyrimido[5,4-d]pyrimidin-4 (3H)-one]	–	–
75 to 110	100 to 1000	Cc1nc2c(-c3ccc(Cl)cc3F)nc(N3CC(Oc4cnn(C)c4)C3)nc2c(=O)n1C [Example 16, 8-(4-chloro-2-fluorophenyl)-2,3-dimethyl-6-(3-((1-methyl-1H-pyrazol-4-yl)oxy)azetidin-1-yl)pyrimido[5,4-d]pyrimidin-4 (3H)-one]	–	–
75 to 110	100 to 1000	Cc1nc2c(-c3ccc(Cl)cc3F)nc(C3CCOC(c4cnn(C)c4)C3)nc2c(=O)n1C (stereo not drawn) [Example 17, 8-(4-chloro-2-fluorophenyl)-2,3-dimethyl-6-(2-(1-methyl-1H-pyrazol-4-yl)tetrahydro-2H-pyran-4-yl)pyrimido[5,4-d]pyrimidin-4 (3H)-one]	–	–
< 75	> 1000	Cc1nc2c(-c3ccc(Cl)cc3F)nc(N3CC(OCc4cnn(C)c4)C3)nc2c(=O)n1C [Example 18, 8-(4-chloro-2-fluorophenyl)-2,3-dimethyl-6-(3-((1-methyl-1H-pyrazol-4-yl)methoxy)azetidin-1-yl)pyrimido[5,4-d]pyrimidin-4 (3H)-one]	–	–
< 75	100 to 1000	Cc1nc2c(-c3ccc(Cl)cc3F)nc(N3CCN(C)C(c4cnn(C)c4)C3)nc2c(=O)n1C (stereo not drawn) [Example 29, 8-(4-chloro-2-fluorophenyl)-2,3-dimethyl-6-(4-methyl-3-(1-methyl-1H-pyrazol-4-yl)piperazin-1-yl)pyrimido[5,4-d]pyrimidin-4(3H)-one]	–	–
75 to 110	100 to 1000	CCN1CCN(c2nc(-c3ccc(Cl)cc3F)c3nc(C)n(C)c(=O)c3n2)CC1c1cnn(C)c1 (stereo not drawn) [Example 30, 8-(4-chloro-2-fluorophenyl)-6-(4-ethyl-3-(1-methyl-1H-pyrazol-4-yl)piperazin-1-yl)-2,3-dimethylpyrimido[5,4-d]pyrimidin-4(3H)-one]	–	–
75 to 110	10 to 100	Cc1nc2c(-c3ccc(Cl)cc3F)nc(N3CCN(CCF)C(c4cnn(C)c4)C3)nc2c(=O)n1C (stereo not drawn) [Example 31, 8-(4-chloro-2-fluorophenyl)-6-(4-(2-fluoroethyl)-3-(1-methyl-1H-pyrazol-4-yl)piperazin-1-yl)-2,3-dimethylpyrimido[5,4-d]pyrimidin-4(3H)-one]	–	–
< 75	10 to 100	Cc1nc2c(-c3ccc(Cl)cc3F)nc(N3CCN(CC(F)F)C(c4cnn(C)c4)C3)nc2c(=O)n1C (stereo not drawn) [Example 32, 8-(4-chloro-2-fluorophenyl)-6-(4-(2,2-difluoroethyl)-3-(1-methyl-1H-pyrazol-4-yl)piperazin-1-yl)-2,3-dimethylpyrimido[5,4-d]pyrimidin-4(3H)-one]	–	–
< 75	10 to 100	Cc1nc2c(-c3ccc(Cl)cc3F)nc(N3CCN(CC(F)(F)F)C(c4cnn(C)c4)C3)nc2c(=O)n1C (stereo not drawn) [Example 33, 8-(4-chloro-2-fluorophenyl)-2,3-dimethyl-6-(3-(1-methyl-1H-pyrazol-4-yl)-4-(2,2,2-trifluoroethyl)piperazin-1-yl)pyrimido[5,4-d]pyrimidin-4(3H)-one]	–	–
< 75	100 to 1000	COCCN1CCN(c2nc(-c3ccc(Cl)cc3F)c3nc(C)n(C)c(=O)c3n2)CC1c1cnn(C)c1 (stereo not drawn) [Example 34, 8-(4-chloro-2-fluorophenyl)-6-(4-(2-methoxyethyl)-3-(1-methyl-1H-pyrazol-4-yl)piperazin-1-yl)-2,3-dimethylpyrimido[5,4-d]pyrimidin-4(3H)-one]	–	–
–	–	Cc1ncc(C2CN(c3nc(-c4ccc(Cl)cc4F)c4nc(C)n(C)c(=O)c4n3)CCO2)cn1 (stereo not drawn) [Example 35, 8-(4-chloro-2-fluorophenyl)-2,3-dimethyl-6-(2-(2-methylpyrimidin-5-yl)morpholino)pyrimido[5,4-d]pyrimidin-4 (3H)-one]	+ (<75%)	10 to 100
–	–	Cc1nc2c(-c3ccc(Cl)cc3F)nc(N3CCOC(c4ccn(C)n4)C3)nc2c(=O)n1C (stereo not drawn) [Example 36, 8-(4-chloro-2-fluorophenyl)-2,3-dimethyl-6-(2-(1-methyl-1H-pyrazol-3-yl)morpholino)pyrimido[5,4-d]pyrimidin-4 (3H)-one]	++ (75-110%)	100 to 1000
< 75	10 to 100	Cc1nc2c(-c3ccc(Cl)cc3F)nc(N3CCOC(c4cn[nH]c4)C3)nc2c(=O)n1C (stereo not drawn) [Example 39, 6-(2-(1H-pyrazol-4-yl)morpholino)-8-(4-chloro-2-fluorophenyl)-2,3-dimethylpyrimido[5,4-d]pyrimidin-4 (3H)-one]	–	–
75 to 110	10 to 100	Cc1nc2c(-c3ccc(Cl)cc3F)nc(N3CCOC(c4cnn(C5COC5)c4)C3)nc2c(=O)n1C (stereo not drawn) [Example 40, 8-(4-chloro-2-fluorophenyl)-2,3-dimethyl-6-(2-(1-(oxetan-3-yl)-1H-pyrazol-4-yl)morpholino)pyrimido[5,4-d]pyrimidin-4 (3H)-one]	–	–
75 to 110	100 to 1000	Cc1nc2c(-c3ccc(Cl)cc3F)nc(N3CCOC(c4cnn(C5CNC5)c4)C3)nc2c(=O)n1C (stereo not drawn) [Example 41, 6-(2-(1-(azetidin-3-yl)-1H-pyrazol-4-yl)morpholino)-8-(4-chloro-2-fluorophenyl)-2,3-dimethylpyrimido[5,4-d]pyrimidin-4 (3H)-one hydrochloride salt]	–	–
< 75	10 to 100	Cc1nc2c(-c3ccc(Cl)cc3F)nc(N3CCOC(c4cnn(C5CN(C)C5)c4)C3)nc2c(=O)n1C (stereo not drawn) [Example 42, 8-(4-chloro-2-fluorophenyl)-2,3-dimethyl-6-(2-(1-(1-methylazetidin-3-yl)-1H-pyrazol-4-yl)morpholino)pyrimido[5,4-d]pyrimidin-4 (3H)-one]	–	–

— US20260200926A1, “TREM2 MODULATORS” (Muna Therapeutics ApS, priority 2022, published 2026)
